Eleven compounds from PubChem BioAssay AID1355 (Sanford-Burnham Center for Chemical Genomics, 2008) can be followed below.

The assay has as its system SW-1 melanoma, thapsigargin-induced death, ATPlite luminescence, 24 h. Nature of the assay: ER stress cell death suppression in melanoma – SW-1 melanoma, ATP content luminescence, SAR follow-up (AID 1355). Conditions: at 25 µM, stronger effect = higher value.
The mark [1] stands for this setting: measured here: thapsigargin 7.5 uM.
The mark [2] stands for this setting: measured here: thapsigargin 15 uM.

The source made the active and inactive calls.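 How the source made its calls: active means survival at least 30 percentage points above the stressed untreated control at any dose of the stressor; inactive means the rest.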

In the case of `CSc1ccc(C2Nc3ccccc3NC3=C2C(=O)CC(c2ccccc2)C3)cc1` (stereo not drawn), the survival is 74%. The compound further had a survival under setting [1] of 72%. Under setting [2], this compound had a survival of 23%.

As to `COc1ccc(C2CC(=O)C3=C(C2)Nc2ccccc2NC3c2ccccc2C(F)(F)F)cc1OC` (stereo not drawn), the survival is 98%. The compound further registered a survival under setting [1] of 89%. The same compound came in with a survival under setting [2] of 7%.

`COc1ccc(C2CC(=O)C3=C(C2)Nc2ccccc2NC3c2cccc(C(F)(F)F)c2)cc1OC` (stereo not drawn): the survival is 86%. Further, under setting [1], the survival was found to be 75%. The same compound had a survival under setting [2] of 8%.

Regarding `COc1ccc(C2CC(=O)C3=C(C2)Nc2ccccc2NC3c2cccc(Br)c2)cc1OC` (stereo not drawn), the survival is 67%. Further, the survival under setting [1] stood at 72%. Under setting [2], this compound displayed a survival of 7%.

For the compound `COc1ccc(C2CC(=O)C3=C(C2)Nc2ccccc2NC3c2cccc(Oc3ccccc3)c2)cc1OC` (stereo not drawn), the survival was 84%. This compound showed a survival under setting [1] of 77%. Under setting [2], this compound registered a survival of 18%.

Take `COc1ccc(C2CC(=O)C3=C(C2)Nc2ccccc2NC3c2cc(C)ccc2C)cc1` (stereo not drawn): the survival is 83%. In addition, the survival under setting [1] is 72%. The compound also had a survival under setting [2] of 9%.

For the compound `O=C1CC(c2ccccc2)CC2=C1C(c1c(F)cccc1Cl)Nc1ccccc1N2` (stereo not drawn), the survival is 73%. The same compound yielded a survival under setting [1] of 72%. The compound also registered a survival under setting [2] of 3%.

Turning to `CC1(C)CC(=O)C2=C(C1)Nc1ccccc1NC2c1ccc(-c2ccccc2)cc1` (stereo not drawn), the survival was 66%. The same compound displayed a survival under setting [1] of 69%. Moreover, the survival under setting [2] was determined as 7%.

Consider `CCCOc1ccc(C2Nc3ccccc3NC3=C2C(=O)CC(c2ccc(OC)c(OC)c2)C3)cc1` (stereo not drawn), for which the survival was 83%. In addition, the survival under setting [1] was 71%. This compound also came in with a survival under setting [2] of 3%.

Turning to `CCOc1cccc(C2Nc3ccccc3NC3=C2C(=O)CC(c2ccc(OC)cc2)C3)c1` (stereo not drawn), the survival was 33% (inactive). The same compound yielded a survival under setting [1] of 75%. The same compound registered a survival under setting [2] of 3%.

For `CCOc1cc(C2Nc3ccccc3NC3=C2C(=O)CC(c2ccc(OC)cc2)C3)cc(Cl)c1O` (stereo not drawn), the survival was 30% (inactive). Further, the survival under setting [1] was 71%. Under setting [2], this compound gave a survival of 2%.
